Laboratory results as given in PubChem BioAssay AID1963836 (Molecular Pharmacology Branch, DTP, NCI, 2024).

System: 857933-349-R-J2-PDC complex spheroid viability
Assay: Anticancer human tumor 857933-349-R-J2-PDC patient-derived colon adenocarcinoma cell line growth inhibition [POLQ]
Conditions: for IC50: curve of first compound; for viability, T/C: stronger effect = lower value
Summary of the method: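 Patient-derived tumour cells were co-cultured with HUVEC and mesenchymal stem cells as multicellular spheroids at 37 °C. They were treated with POLQ inhibitors (novobiocin, ART-558, RP6685) alone or combined with other agents. Top concentrations were at or near clinical Cmax (otherwise 10 microM; SN-38 at 1 microM), decreasing in half-log steps.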

[1] = second compound 0.0316 µM, first compound 0.0316 µM
[2] = second compound 0.0316 µM, first compound 0.1 µM
[3] = second compound 0.0316 µM, first compound 0.316 µM
[4] = second compound 0.0316 µM, first compound 1 µM
[5] = second compound 0.0316 µM, first compound 3.16 µM
[6] = second compound 0.0316 µM, first compound 10 µM
[7] = second compound 0.1 µM, first compound 0.0316 µM
[8] = second compound 0.1 µM, first compound 0.1 µM
[9] = second compound 0.1 µM, first compound 0.316 µM
[10] = second compound 0.1 µM, first compound 1 µM
[11] = second compound 0.1 µM, first compound 3.16 µM
[12] = second compound 0.1 µM, first compound 10 µM
[13] = second compound 0.316 µM, first compound 0.0316 µM
[14] = second compound 0.316 µM, first compound 0.1 µM
[15] = second compound 0.316 µM, first compound 0.316 µM
[16] = second compound 0.316 µM, first compound 1 µM
[17] = second compound 0.316 µM, first compound 3.16 µM
[18] = second compound 0.316 µM, first compound 10 µM
[19] = second compound 1 µM, first compound 0.0316 µM
[20] = second compound 1 µM, first compound 0.1 µM
[21] = second compound 1 µM, first compound 0.316 µM
[22] = second compound 1 µM, first compound 1 µM
[23] = second compound 1 µM, first compound 3.16 µM
[24] = second compound 1 µM, first compound 10 µM
[25] = second compound 3.16 µM, first compound 0.0316 µM
[26] = second compound 3.16 µM, first compound 0.1 µM
[27] = second compound 3.16 µM, first compound 0.316 µM
[28] = second compound 3.16 µM, first compound 1 µM
[29] = second compound 3.16 µM, first compound 3.16 µM
[30] = second compound 3.16 µM, first compound 10 µM
[31] = second compound 10 µM, first compound 0.0316 µM
[32] = second compound 10 µM, first compound 0.1 µM
[33] = second compound 10 µM, first compound 0.316 µM
[34] = second compound 10 µM, first compound 1 µM
[35] = second compound 10 µM, first compound 3.16 µM
[36] = second compound 10 µM, first compound 10 µM
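Also: spheroids exposed to compounds for seven days before readout.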

Work on CC1COCCN1c1cc(C2(O)CC3CCC(C2)O3)c2cnn(-c3ccn[nH]3)c2n1 (stereo unspecified) + Cc1cccc(N(C)C(=O)C2C(O)CCN2c2nc(C)cc(C(F)(F)F)c2C#N)c1 yielded an IC50 (second compound 0.0316 µM) of 0.247 µM, an IC50 (second compound 0.1 µM) of 0.365 µM and an IC50 (second compound 0.316 µM) of 0.291 µM. The IC50 (second compound 1 µM) was 0.202 µM, the IC50 (second compound 3.16 µM) was 0.268 µM and the IC50 (second compound 10 µM) was 0.231 µM. It also gave a viability, T/C [1] of 73.2%, a viability, T/C [2] of 56.1% and a viability, T/C [3] of 50.3%. For the same molecule, the viability, T/C [4] was 41.7%, the viability, T/C [5] was 42.7% and the viability, T/C [6] was 43.6%. It also gave a viability, T/C [7] of 60.5%, a viability, T/C [8] of 62.9% and a viability, T/C [9] of 50.1%. The viability, T/C [10] was 38.3%, the viability, T/C [11] was 50.1% and the viability, T/C [12] was 59.1%. It also gave a viability, T/C [13] of 76.4%, a viability, T/C [14] of 69.9% and a viability, T/C [15] of 48.4%. It also gave a viability, T/C [16] of 45.9%, a viability, T/C [17] of 41.3% and a viability, T/C [18] of 48.7%. For the same molecule, the viability, T/C [19] was 67.1%, the viability, T/C [20] was 59.5% and the viability, T/C [21] was 38.4%. It also gave a viability, T/C [22] of 43.4%, a viability, T/C [23] of 46.6% and a viability, T/C [24] of 47.5%. For the same molecule, the viability, T/C [25] was 60.5%, the viability, T/C [26] was 62.5% and the viability, T/C [27] was 47.6%. For the same molecule, the viability, T/C [28] was 41.1%, the viability, T/C [29] was 54.4% and the viability, T/C [30] was 49.3%. It also gave a viability, T/C [31] of 56.3%, a viability, T/C [32] of 55.9% and a viability, T/C [33] of 50.5%. For the same molecule, the viability, T/C [34] was 36.9%, the viability, T/C [35] was 51.7% and the viability, T/C [36] was 40.1%.
With COc1cc2cc(C(=O)CCC(=O)O)sc2cc1OC + Cc1cccc(N(C)C(=O)C2C(O)CCN2c2nc(C)cc(C(F)(F)F)c2C#N)c1 the IC50 (second compound 0.0316 µM) was over 10 µM, the IC50 (second compound 0.1 µM) was over 10 µM and the IC50 (second compound 0.316 µM) was over 10 µM. It also gave an IC50 (second compound 1 µM) of over 10 µM, an IC50 (second compound 3.16 µM) of over 10 µM and an IC50 (second compound 10 µM) of over 10 µM. For the same molecule, the viability, T/C [1] was 97.6%, the viability, T/C [2] was 95.1% and the viability, T/C [3] was 93.6%. It also gave a viability, T/C [4] of 97.7%, a viability, T/C [5] of 96.9% and a viability, T/C [6] of 84.1%. For the same molecule, the viability, T/C [7] was 94.8%, the viability, T/C [8] was 93% and the viability, T/C [9] was 102%. For the same molecule, the viability, T/C [10] was 102%, the viability, T/C [11] was 86.8% and the viability, T/C [12] was 87.2%. For the same molecule, the viability, T/C [13] was 88.8%, the viability, T/C [14] was 93.8% and the viability, T/C [15] was 89.9%. The viability, T/C [16] was 89.4%, the viability, T/C [17] was 87.9% and the viability, T/C [18] was 76.5%. For the same molecule, the viability, T/C [19] was 89.4%, the viability, T/C [20] was 96.5% and the viability, T/C [21] was 100%. For the same molecule, the viability, T/C [22] was 96.9%, the viability, T/C [23] was 101% and the viability, T/C [24] was 92.1%. For the same molecule, the viability, T/C [25] was 104%, the viability, T/C [26] was 106% and the viability, T/C [27] was 90.4%. It also gave a viability, T/C [28] of 101%, a viability, T/C [29] of 100% and a viability, T/C [30] of 86.6%. It also gave a viability, T/C [31] of 84.7%, a viability, T/C [32] of 87.6% and a viability, T/C [33] of 81.6%. It also gave a viability, T/C [34] of 105%, a viability, T/C [35] of 88.8% and a viability, T/C [36] of 85.6%.
Work on O=C(Nc1ccc(O)c(NS(=O)(=O)c2ccc(F)cc2)c1)c1ccc(-c2ccccc2)cc1 + Cc1cccc(N(C)C(=O)C2C(O)CCN2c2nc(C)cc(C(F)(F)F)c2C#N)c1 yielded an IC50 (second compound 0.0316 µM) of over 10 µM, an IC50 (second compound 0.1 µM) of over 10 µM and an IC50 (second compound 0.316 µM) of over 10 µM. It also gave an IC50 (second compound 1 µM) of over 10 µM, an IC50 (second compound 3.16 µM) of over 10 µM and an IC50 (second compound 10 µM) of over 10 µM. The viability, T/C [1] was 90.2%, the viability, T/C [2] was 85.2% and the viability, T/C [3] was 88.2%. The viability, T/C [4] was 90.6%, the viability, T/C [5] was 90.3% and the viability, T/C [6] was 92.5%. The viability, T/C [7] was 97.7%, the viability, T/C [8] was 86.2% and the viability, T/C [9] was 87%. It also gave a viability, T/C [10] of 97.5%, a viability, T/C [11] of 91.9% and a viability, T/C [12] of 90.8%. For the same molecule, the viability, T/C [13] was 97.7%, the viability, T/C [14] was 85.5% and the viability, T/C [15] was 97.8%. It also gave a viability, T/C [16] of 93.4%, a viability, T/C [17] of 88.9% and a viability, T/C [18] of 70.8%. It also gave a viability, T/C [19] of 99.1%, a viability, T/C [20] of 82% and a viability, T/C [21] of 96.8%. It also gave a viability, T/C [22] of 95.4%, a viability, T/C [23] of 114% and a viability, T/C [24] of 93%. The viability, T/C [25] was 97.9%, the viability, T/C [26] was 95.9% and the viability, T/C [27] was 97.6%. For the same molecule, the viability, T/C [28] was 93.4%, the viability, T/C [29] was 96.8% and the viability, T/C [30] was 77.7%. For the same molecule, the viability, T/C [31] was 95.3%, the viability, T/C [32] was 105% and the viability, T/C [33] was 91%. It also gave a viability, T/C [34] of 90%, a viability, T/C [35] of 88.6% and a viability, T/C [36] of 73.8%.
